From patent publication US6084120A, “β-Alkoxyacrylates against malaria” (Hoffmann-La Roche Inc., priority 1997, dated 2000)
Converted amounts (≈) assume the structure as drawn. Where two headings read alike, the source gives them in different places.

How the values were obtained:
[1] = test system: human-pathogenic Plasmodium falciparum strain NF54; experiment: Growth inhibition of Plasmodium falciparum in vitro, strain NF54 (chloroquine-sensitive), [G-3H]-hypoxanthin incorporation; assay type: cell-based; details: 72 h, read-out: in vitro strain NF 54 IC50 (growth inhibition) (converted)
Method: (§1) Test method for the determination of the activity against Plasmodium falciparum in vitro
(§2) The preparations are tested on intraerythrocytary stages of Plasmodium falciparum from asynchronous cultures according to the method of Desjardin et al. (Desjardins, R. E. et al: Quantitative assessment of antimalarial activity in vitro by a semiautomated microdilution technique. Antimicrob. Agents Chemother. 16, 710-718, (1979)).
(§3) The culture medium consists of RPMI 1640 with the addition of 25 mM HEPES, 25 mM NaHCO3, 100 μg/ml neomycin and 10% human serum (A^+). Human-A^+ erythrocytes are used as the Plasmodium falciparum host cells. The parasites are maintained at 37° C. in an atmosphere of 3% O2, 4% CO2, 93% N2 and 95% relative humidity.
(§4) In order to determine the activity, the preparations are dissolved in DMSO, pre-diluted in the culture medium to a suitable starting concentration and subsequently titrated-out on to microtitre plates in the 2nd stage over 6-7 steps. After the addition of the parasite culture (0.7% parasitemia in 2.5% erythrocyte suspension) the test plates are incubated under the conditions given above for 72 h. The parasite growth in the different preparation concentrations is determined using [G-^3 H]-hypoxanthin incorporation compared to untreated control cultures on the same test plates. The 50% growth inhibition (IC50) is calculated according to logit regression analysis from the resulting dosage-activity curve.
(§5) The preparations are tested on at least one chloroquine-resistant and one chloroquine-sensitive Plasmodium falciparum strain. Additional sensitive and resistant strains are included for further characterization.

[2] = test system: Plasmodium berghei (strain ANKA); experiment: Activity against Plasmodium berghei in vivo, reduction of parasitemia in infected mice; details: for inhibition in vivo at 100 mg/kg / inhibition in vivo at 10 mg/kg: Plasmodium berghei, 48 h after treatment; for inhibition in vivo at 100 mg/kg / in vivo sc act. % (toxic): single dose 100 mg/kg; for inhibition in vivo at 10 mg/kg: single dose 10 mg/kg
Method: Test method for the determination of the activity against Plasmodium berghei in vivo
The preparations are tested on mice infected with malaria pathogens (Plasmodium berghei). Male albino mice (IBM:MORO(SPF), FUELLINSDORF) weighing about 25 g are used as the test animals. They are kept in climatized rooms at 21-22° C. in groups of 5 animals per cage. They receive ad libitum a diet feed with a low PABA content (NAFAG FUTTER" No. 9009 PAB-45, PABA content 45 mg/kg) and drinking water. On the first day of the test (D0) the test animals are infected with Plasmodium berghei (strain ANKA). For this there is used heparinized blood of a donor mouse with about 30% parasitemia, which is diluted with physiological saline such that it contains 10^8 parasitized erythrocytes per ml. 0.2 ml of this suspension is injected intravenously (i.v.) into the mice to be treated and into the control mice. In untreated control animals the parasitemia normally reaches 30-40% on the third day after the infection (D+3) and the test animals die between days +5 and +7.
The substances to be tested are dissolved or suspended in distilled water or in a mixture of 7% Tween 80, 3% alcohol (96%) and water. Usually, 0.25 ml of this solution or suspension is administered once subcutaneously and perorally to groups of 5 test animals. Treatment is effected 24 hours after the infection. 10 control animals are treated in the same manner with solvent or suspension medium per test.
All substances are tested in a first test in a single dosage of 100 or 10 mg/kg. Only those substances which in this test (10 mg/kg) have shown a parasitaemia reduction of more than 90% are used for the titration. Suitable dilutions of the test substance can be used to obtain an accurate titration of the activity.
48 hours after the treatment (D+3) blood smears are prepared from all animals using blood from tail veins and are stained with giemsa. The average erythrocyte infection rate (parasitemiea in %) in the control groups as well as in the groups which have been treated with the test compounds is determined by counting under a microscope. The difference in the average values of the infection rates of control group (100%) and treated groups is calculated and expressed as a percentage reduction (GI%). The ED50 or ED90 is determined mathematically by means of the JMP programme (nonlinear fit). The ED50 (ED90) in mg/kg is that dose which after single administration reduces the average erythrocyte infection rate by 50% (90%) in comparison to the control group.

[3] = test system: human-pathogenic Plasmodium falciparum K1; experiment: Growth inhibition of Plasmodium falciparum in vitro, strain K1 (chloroquine-resistant), [G-3H]-hypoxanthin incorporation; assay type: cell-based; details: 72 h
Method: as §1, §2, §3, §4, §5

[4] = po, perorally, read-out: in vivo po act. % (percentage reduction of the parasitemia)
[5] = sc, subcutaneously, read-out: in vivo sc act. % (percentage reduction of the parasitemia)

| SMILES | IC50 [1] | inhibition in vivo at 100 mg/kg [2, 4] | inhibition in vivo at 100 mg/kg [2, 5] | IC50 [3] | inhibition in vivo at 10 mg/kg [2, 4] | in vivo sc act. % (toxic) ([2]; subcutaneously) |
| --- | --- | --- | --- | --- | --- | --- |
| CON=C(C(=O)OC)c1ccccc1/C=C/C=C/c1ccccc1C(F)(F)F [Example 206, (Z)- or (E)-Methoxyimino-[2-[(1E,2E)-4-(2-trifluoromethylphenyl)-buta-1,3-dienyl]-phenyl]-acetic acid methyl ester] | 0.4 µg/mL (≈ 1.03 µM) | 46% | 44% | 1.4 µg/mL (≈ 3.6 µM) |  |  |
| CO/C=C(/C(=O)OC)c1csc2cccc(COC(=O)/C=C/c3cccc(C(F)(F)F)c3)c12 [Example 236] | 44.2 µg/mL (≈ 92.8 µM) |  |  | 175 µg/mL (≈ 367 µM) |  |  |
| CO/C=C(/C(=O)OC)c1csc2cccc(CN(C)[C@@H](C)c3ccccc3)c12 [Example 222] | 22.6 µg/mL (≈ 57.1 µM) |  |  | 64.3 µg/mL (≈ 163 µM) |  |  |
| CO/C=C(/C(=O)OC)c1csc2cccc(COC(=O)Cc3ccc(Cl)cc3Cl)c12 [Example 233] | 29.5 µg/mL (≈ 63.4 µM) |  |  | 67.3 µg/mL (≈ 145 µM) |  |  |
| CO/N=C(/C(=O)OC)c1ccccc1CO/N=C(\C)c1cccc(C(F)(F)F)c1 [Example 110] | 20 µg/mL (≈ 49 µM) |  |  | 65.8 µg/mL (≈ 161 µM) |  |  |
| CO/C=C(/C(=O)OC)c1ccccc1/C=C/COC1CCCCO1 [Example 251, (E)-3-Methoxy-2-{(E)-2-[(R)- and (S)-3-(tetrahydro-pyran-2-yloxy}-propenyl]-phenyl}-acrylic acid methyl ester] | 64.9 µg/mL (≈ 195 µM) | 40% | 74% | 111 µg/mL (≈ 334 µM) |  |  |
| CO/C=C(/C(=O)OC)c1ccccc1/C=C/c1cc(OC)c(OC)cc1[N+](=O)[O-] [Example 126] | 1.2 µg/mL (≈ 3 µM) | 79% | 76% | 3.3 µg/mL (≈ 8.26 µM) |  |  |
| COC=C(C(=O)OC)c1ccccc1C=CC=Cc1ccc(C(F)(F)F)cc1C(F)(F)F [Example 199, (E)- or (Z)-2-[2-[4-(2,4-bis-trifluoromethyl-phenyl)-buta-1,3-dienyl]phenyl]-3-methoxy-acrylic acid methyl ester] | 0.06 µg/mL (≈ 0.131 µM) |  | 100% | 0.13 µg/mL (≈ 0.285 µM) | 100% |  |
| CO/C=C(/C(=O)OC)c1csc2cccc(/C=C/c3ccccc3)c12 [Example 241] | 1.4 µg/mL (≈ 3.99 µM) |  |  | 7.4 µg/mL (≈ 21.1 µM) |  |  |
| CO/C=C(/C(=O)OC)c1ccccc1/C=C/C=C/c1ccccc1C(F)(F)F [Example 185, Methyl (E)-3-methoxy-2-[o-[(all-E)-4-(alpha,alpha,alpha-trifluoro-tolyl)-1,3-butadienyl]-phenl]acrylate] | 0.06 µg/mL (≈ 0.154 µM) |  | 100% | 0.15 µg/mL (≈ 0.386 µM) | 99% |  |
| CO/C=C(/C(=O)OC)c1csc2c(C)cccc12 [Example 250] | 184 µg/mL (≈ 703 µM) |  |  | 550 µg/mL (≈ 2100 µM) |  |  |
| CO/C=C(/C(=O)OC)c1ccccc1CSc1c(F)c(F)c(F)c(F)c1F [Example 11] | 1.17 µg/mL (≈ 2.89 µM) | 80% |  | 4.9 µg/mL (≈ 12.1 µM) |  | tox |
| CO/N=C(/C(=O)OC)c1ccccc1C#C/C=C/c1ccccc1C(F)(F)F [Example 209] | 3.21 µg/mL (≈ 8.29 µM) |  |  | 5.7 µg/mL (≈ 14.7 µM) |  |  |
| CO/C=C(/C(=O)OC)c1ccccc1/C=C/C=C/c1ccccc1Br [Example 203, Methyl (E)-2-[o-[(all-E)-4-(o-bromophenyl)-1,3-butadienyl]phenyl]-3-methoxyacrylate] | 0.07 µg/mL (≈ 0.175 µM) |  | 90% | 0.28 µg/mL (≈ 0.701 µM) | 76% |  |
| CO/C=C(/C(=O)OC)c1ccccc1COc1cnc2cc(Br)cc(C)c2n1 [Example 28] | 17.7 µg/mL (≈ 39.9 µM) |  |  | 19.1 µg/mL (≈ 43.1 µM) |  |  |
| CO/N=C(/C(=O)OC)c1ccccc1-c1ccc(-c2ccccc2C(F)(F)F)s1 [Example 217] | 23.7 µg/mL (≈ 56.5 µM) |  |  | 60.8 µg/mL (≈ 145 µM) |  |  |
| CO/C=C(/C(=O)OC)c1csc2cccc(/C=C/c3ccsc3)c12 [Example 243] | 6.7 µg/mL (≈ 18.8 µM) |  |  | 22.6 µg/mL (≈ 63.4 µM) |  |  |
| CO/C=C(/C(=O)OC)c1ccccc1CCCCc1ccccc1C(F)(F)F [Example 210] | 0.85 µg/mL (≈ 2.17 µM) | 82% | 99% | 1.35 µg/mL (≈ 3.44 µM) |  |  |
| CO/N=C(/C(=O)OC)c1ccccc1CO/N=C(\C)c1cc(C(F)(F)F)cc(C(F)(F)F)c1 [Example 111] | 1.6 µg/mL (≈ 3.36 µM) |  |  | 4.3 µg/mL (≈ 9.03 µM) |  |  |
| CO/C=C(/C(=O)OC)c1ccccc1CO/N=C(\C)c1cc(C(F)(F)F)cc(C(F)(F)F)c1 [Example 105] | 0.21 µg/mL (≈ 0.442 µM) |  |  | 1.01 µg/mL (≈ 2.12 µM) |  |  |
| CO/C=C(/C(=O)OC)c1ccccc1/C=C/CSc1ccccc1C(F)(F)F [Example 120] | 1.75 µg/mL (≈ 4.28 µM) | 46% | 91% | 2.51 µg/mL (≈ 6.15 µM) |  |  |
| CO/C=C(/C(=O)OC)c1ccccc1/C=C/c1ccc(OC)c(OC)c1Cl [Example 136] | 1.04 µg/mL (≈ 2.67 µM) | 40% |  | 2.9 µg/mL (≈ 7.46 µM) |  | tox |
| CO/N=C(/C(=O)OC)c1ccccc1C#CC#Cc1ccccc1C(F)(F)F [Example 207] | 10.8 µg/mL (≈ 28 µM) |  |  | 25.8 µg/mL (≈ 67 µM) |  |  |
| CO/C=C(/C(=O)OC)c1csc2cccc(CO/N=C(\C)c3cccc(C(F)(F)F)c3)c12 [Example 238] | 17.5 µg/mL (≈ 37.8 µM) |  |  | 40.9 µg/mL (≈ 88.2 µM) |  |  |
| CO/C=C(/C(=O)OC)c1ccccc1CCCCc1ccc(C(F)(F)F)cc1C(F)(F)F [Example 211] | 0.33 µg/mL (≈ 0.717 µM) |  | 92% | 1.34 µg/mL (≈ 2.91 µM) | 59% |  |
